Values after ≈ are worked out from the molar mass of the structure shown. Active and inactive are the calls of the source. The rule behind the calls is not given here.
What was measured:
[1] = Binding affinity to EYPC/cholesterol small unilamellar vesicles assessed as intrinsic tryptophan acrylamide quenching constant by fluorescence assay (reference value: 5.95 to 7.56 /M)
Escherichia coli [2] = assay: Antibacterial activity against Escherichia coli KCTC 1682 after 24 hrs; format: functional; conditions: KCTC 1682, 24 h
Staphylococcus aureus [3] = assay: Antibacterial activity against Staphylococcus aureus KCTC 1621 in presence of 6 uM NH4Cl after 24 hrs; format: functional; conditions: KCTC 1621, 24 h
RAW264.7 [4] = assay: Anti-inflammatory activity in mouse RAW264.7 cells assessed as reduction in LPS-induced TNF-alpha mRNA expression at 10 uM after 3 hrs by RT-PCR analysis; format: functional, cell-based
Staphylococcus aureus [5] = assay: Ratio of MIC for Staphylococcus aureus KCTC 1621 in presence of 20% human serum to MIC for Escherichia coli KCTC 1682 in presence of 20% human serum; format: functional
Pseudomonas aeruginosa [6] = assay: Synergistic antibacterial activity against multidrug-resistant Pseudomonas aeruginosa CCARM 2095 after 72 hrs in presence of oxacillin by chequerboard assay; format: functional
Enterococcus faecium [7] = assay: Potency index, ratio of melittin MIC to compound MIC for Vancomycin-resistant Enterococcus faecium ATCC 51559; format: functional
Escherichia coli [8] = assay: Antibacterial activity against Escherichia coli KCTC 1682 in presence of 6 uM NH4Cl after 24 hrs; format: functional; conditions: KCTC 1682, 24 h
Pseudomonas aeruginosa [9] = assay: Antibacterial activity against multidrug-resistant Pseudomonas aeruginosa CCARM 2109 after 24 hrs; format: functional; conditions: CCARM 2109, 24 h
Staphylococcus aureus [10] = assay: Potency index, ratio of LL-37 MIC to compound MIC for methicillin resistant Staphylococcus aureus CCARM 3090; format: functional
Pseudomonas aeruginosa [11] = assay: Antibiofilm activity against multidrug-resistant Pseudomonas aeruginosa CCARM 2095 after 24 hrs by crystal violet staining based assay; format: functional
[12] = Therapeutic index, ratio of MHC10 for human RBC to MIC for Escherichia coli KCTC 1682; format: toxicity; conditions: red blood cells (RBC), pooled result: one value given for 6 cell lines, strains, targets or settings, read-out: TI
Staphylococcus aureus [13] = assay: Antibacterial activity against Staphylococcus aureus KCTC 1621 in presence of 150 mM NaCl after 24 hrs; format: functional; conditions: KCTC 1621, 24 h
RAW264.7 [14] = assay: Anti-inflammatory activity in mouse RAW264.7 cells assessed as reduction in LPS-induced MCP-1 mRNA expression at 10 uM after 3 hrs by RT-PCR analysis; format: functional, cell-based
Escherichia coli [15] = assay: Antibacterial activity against Escherichia coli KCTC 1682 in presence of 1 mM MgCl2 after 24 hrs; format: functional; conditions: KCTC 1682, 24 h
RAW264.7 [16] = assay: Anti-inflammatory activity in mouse RAW264.7 cells assessed as reduction in LPS-induced nitric oxide production at 10 to 20 uM after 24 hrs by Griess assay; format: functional, cell-based
Staphylococcus aureus [17] = assay: Potency index, ratio of melittin MIC to compound MIC for methicillin resistant Staphylococcus aureus CCARM 3090; format: functional
Pseudomonas aeruginosa [18] = assay: Synergistic antibacterial activity against multidrug-resistant Pseudomonas aeruginosa CCARM 2095 after 72 hrs in presence of ciprofloxacin by chequerboard assay; format: functional
Pseudomonas aeruginosa [19] = assay: Potency index, ratio of melittin MIC to compound MIC for multidrug-resistant Pseudomonas aeruginosa CCARM 2109; format: functional
Enterococcus faecium [20] = assay: Potency index, ratio of LL-37 MIC to compound MIC for Vancomycin-resistant Enterococcus faecium ATCC 51559; format: functional
Escherichia coli [21] = assay: Antibacterial activity against Escherichia coli KCTC 1682 in presence of 20% human serum after 24 hrs; format: functional; conditions: KCTC 1682, 24 h
Staphylococcus aureus [22] = assay: Potency index, ratio of LL-37 MIC to compound MIC for methicillin resistant Staphylococcus aureus CCARM 3089; format: functional
Escherichia coli [23] = assay: Antibacterial activity against Escherichia coli KCTC 1682 in presence of 2.5 mM CaCl2 after 24 hrs; format: functional; conditions: KCTC 1682, 24 h
RAW264.7 [24] = assay: Anti-inflammatory activity in mouse RAW264.7 cells assessed as reduction in LPS-induced IL-6 production at 10 to 20 uM preincubated for 1 hr followed by LPS stimulation measured after 6 hrs by ELISA; format: functional, cell-based
NIH3T3 = assay: Cytotoxicity against mouse NIH/3T3 cells up to 128 uM after 48 hrs by MTT assay; format: cell-based; conditions: nih3t3, 48 h
Staphylococcus aureus [25] = assay: Antibacterial activity against Staphylococcus aureus KCTC 1621 after 24 hrs; format: functional; conditions: KCTC 1621, 24 h
Pseudomonas aeruginosa [26] = assay: Antibacterial activity against multidrug-resistant Pseudomonas aeruginosa CCARM 2095 after 24 hrs; format: functional; conditions: CCARM 2095, 24 h
Escherichia coli [27] = assay: Antibacterial activity against Escherichia coli KCTC 1682 in presence of 150 mM NaCl after 24 hrs; format: functional; conditions: KCTC 1682, 24 h
Pseudomonas aeruginosa [28] = assay: Potency index, ratio of LL-37 MIC to compound MIC for multidrug-resistant Pseudomonas aeruginosa CCARM 2095; format: functional
[29] = tested on: Staphylococcus epidermidis; assay: Antibacterial activity against Staphylococcus epidermidis KCTC 1917 after 24 hrs; format: functional; conditions: KCTC 1917, 24 h
Escherichia coli [30] = assay: Antibacterial activity against Escherichia coli KCTC 1682 in presence of 4.5 mM KCl after 24 hrs; format: functional; conditions: KCTC 1682, 24 h
Staphylococcus aureus [31] = assay: Antibacterial activity against Staphylococcus aureus KCTC 1621 assessed as cell membrane disruption at 2 times MIC within 4 mins by Sytox Green dye based fluorescence spectrophotometer assay; format: functional, organism-based
Pseudomonas aeruginosa [32] = assay: Potency index, ratio of LL-37 MBIC90 to compound MBIC90 for antibiofilm activity against multidrug-resistant Pseudomonas aeruginosa CCARM 2095; format: functional
Pseudomonas aeruginosa [33] = assay: Synergistic antibacterial activity against multidrug-resistant Pseudomonas aeruginosa CCARM 2095 after 72 hrs in presence of chloramphenicol by chequerboard assay; format: functional
Staphylococcus aureus [34] = assay: Antibacterial activity against Staphylococcus aureus KCTC 1621 assessed as cytoplasmic membrane depolarization at 2 times MIC by disC3-5 dye based fluorescence assay; format: functional, organism-based
Staphylococcus aureus [35] = assay: Antibacterial activity against methicillin resistant Staphylococcus aureus CCARM 3090 after 24 hrs; format: functional; conditions: CCARM 3090, 24 h
Enterococcus faecium [36] = assay: Antibacterial activity against Vancomycin-resistant Enterococcus faecium ATCC 51559 after 24 hrs; format: functional; conditions: ATCC 51559, 24 h
Bacillus subtilis = assay: Antibacterial activity against Bacillus subtilis KCTC 3068 after 24 hrs; format: functional; conditions: KCTC 3068, 24 h
Pseudomonas aeruginosa [37] = assay: Antibacterial activity against Pseudomonas aeruginosa KCTC 1637 after 24 hrs; format: functional; conditions: KCTC 1637, 24 h
Staphylococcus aureus [38] = assay: Antibacterial activity against Staphylococcus aureus KCTC 1621 in presence of 20% human serum after 24 hrs; format: functional; conditions: KCTC 1621, 24 h
Erythrocyte = assay: Hemolytic activity in human RBC after 1 hr; format: ADME, cell-based
Lipid bilayer = assay: Binding affinity to EYPE/EYPG small unilamellar vesicles assessed as intrinsic tryptophan acrylamide quenching constant by fluorescence assay (reference value: 5.95 to 7.56 /M)
Pseudomonas aeruginosa [39] = assay: Potency index, ratio of LL-37 MIC to compound MIC for multidrug-resistant Pseudomonas aeruginosa CCARM 2109; format: functional
RAW264.7 [40] = assay: Anti-inflammatory activity in mouse RAW264.7 cells assessed as reduction in LPS-induced IL-6 mRNA expression at 10 uM after 3 hrs by RT-PCR analysis; format: functional, cell-based

For `CC[C@H](C)[C@H](NC(=O)[C@H](CC(C)C)NC(=O)[C@H](CCCCN)NC(=O)[C@@H](NC(=O)[C@@H](NC(=O)[C@H](CCCNC(=N)N)NC(=O)[C@@H](N)CCCCN)[C@@H](C)CC)C(C)C)C(=O)N[C@@H](CC(C)C)C(=O)N[C@@H](CCCCN)C(=O)N[C@@H](Cc1c[nH]c2ccccc12)C(=O)N[C@@H](CC(C)C)C(=O)N[C@@H](CCCNC(=N)N)C(N)=O`, the KSV [1] was 1.66 M⁻¹, the MIC (Escherichia coli [2]) was 8 µM (≈ 12.5 µg/mL) and the MIC (Staphylococcus aureus [3]) was 2 µM. For the same compound, the Activity (RAW264.7 [4]) was “Active”, the Ratio (Staphylococcus aureus [5]) was 2 - 8 and the “fractional inhibitory concentration index (FICI)” value (Pseudomonas aeruginosa [6]) was 0.375. The Ratio (Enterococcus faecium [7]) was 2 - 4, the MIC (Escherichia coli [8]) was 8 µM and the MIC (Pseudomonas aeruginosa [9]) was 8 µM (≈ 12.5 µg/mL). For the same compound, the Ratio (Staphylococcus aureus [10]) was 2 - 4, the MBIC90 (Pseudomonas aeruginosa [11]) was 16 µM and the selectivity ratio [12] was 4.4. For the same compound, the MIC (Staphylococcus aureus [13]) was 2 µM, the Activity (RAW264.7 [14]) was “Active” and the MIC (Escherichia coli [15]) was 8 µM. For the same compound, the Activity (RAW264.7 [16]) was “Active”, the Ratio (Staphylococcus aureus [17]) was 2 - 4 and the “fractional inhibitory concentration index (FICI)” value (Pseudomonas aeruginosa [18]) was 0.3125. The Ratio (Pseudomonas aeruginosa [19]) was 2 - 4, the Ratio (Enterococcus faecium [20]) was 2 - 4 and the MIC (Escherichia coli [21]) was 8 µM. For the same compound, the Ratio (Staphylococcus aureus [22]) was 2 - 4, the MIC (Escherichia coli [23]) was 8 µM and the Activity (RAW264.7 [24]) was “Active”. The Activity (NIH3T3) was “Non-Toxic”, the MIC (Staphylococcus aureus [25]) was 4 µM (≈ 6.26 µg/mL) and the MIC (Pseudomonas aeruginosa [26]) was 16 µM (≈ 25 µg/mL). For the same compound, the MIC (Escherichia coli [27]) was 8 µM, the Ratio (Pseudomonas aeruginosa [28]) was 2 - 4 and the MIC [29] was 4 µM (≈ 6.26 µg/mL). The MIC (Escherichia coli [30]) was 8 µM, the Activity (Staphylococcus aureus [31]) was “Active” and the “fold change (FC)” value (Pseudomonas aeruginosa [32]) was 4 - 8. The “fractional inhibitory concentration index (FICI)” value (Pseudomonas aeruginosa [33]) was 0.25, the Activity (Staphylococcus aureus [34]) was “Active” and the MIC (Staphylococcus aureus [35]) was 8 µM (≈ 12.5 µg/mL). The MIC (Enterococcus faecium [36]) was 4 µM (≈ 6.26 µg/mL), the MIC (Bacillus subtilis) was 8 µM (≈ 12.5 µg/mL) and the MIC (Pseudomonas aeruginosa [37]) was 8 µM (≈ 12.5 µg/mL). For the same compound, the MIC (Staphylococcus aureus [38]) was 8 µM, the MHC10 (Erythrocyte) was 25 µM and the KSV (Lipid bilayer) was 1.12 M⁻¹. For the same compound, the Ratio (Pseudomonas aeruginosa [39]) was 2 - 4 and the Activity (RAW264.7 [40]) was “Active”.

With `CC[C@H](C)[C@H](NC(=O)[C@H](CCCNC(=N)N)NC(=O)[C@@H](N)CCCCN)C(=O)N[C@H](C(=O)N[C@@H](CCCCN)C(=O)N[C@@H](CC(C)C)C(=O)N[C@H](CC(C)C)C(=O)N[C@@H](CC(C)C)C(=O)N[C@@H](CCCCN)C(=O)N[C@@H](Cc1c[nH]c2ccccc12)C(=O)N[C@@H](CC(C)C)C(=O)N[C@@H](CCCNC(=N)N)C(N)=O)C(C)C` the KSV [1] was 2.98 M⁻¹, the MIC (Escherichia coli [2]) was 4 µM (≈ 6.26 µg/mL) and the MIC (Staphylococcus aureus [3]) was 2 µM. The Activity (RAW264.7 [4]) was “Active”, the Ratio (Staphylococcus aureus [5]) was 2 - 8 and the “fractional inhibitory concentration index (FICI)” value (Pseudomonas aeruginosa [6]) was 0.3125. For the same compound, the Ratio (Enterococcus faecium [7]) was 2 - 4, the MIC (Escherichia coli [8]) was 4 µM and the MIC (Pseudomonas aeruginosa [9]) was 4 µM (≈ 6.26 µg/mL). For the same compound, the Ratio (Staphylococcus aureus [10]) was 2 - 4, the MBIC90 (Pseudomonas aeruginosa [11]) was 8 µM and the selectivity ratio [12] was 30. The MIC (Staphylococcus aureus [13]) was 4 µM, the Activity (RAW264.7 [14]) was “Active” and the MIC (Escherichia coli [15]) was 8 µM. For the same compound, the Activity (RAW264.7 [16]) was “Active”, the Ratio (Staphylococcus aureus [17]) was 2 - 4 and the “fractional inhibitory concentration index (FICI)” value (Pseudomonas aeruginosa [18]) was 0.3125. For the same compound, the Ratio (Pseudomonas aeruginosa [19]) was 2 - 4, the Ratio (Enterococcus faecium [20]) was 2 - 4 and the MIC (Escherichia coli [21]) was 4 µM. The Ratio (Staphylococcus aureus [22]) was 2 - 4, the MIC (Escherichia coli [23]) was 16 µM and the Activity (RAW264.7 [24]) was “Active”. The Activity (NIH3T3) was “Non-Toxic”, the MIC (Staphylococcus aureus [25]) was 2 µM (≈ 3.13 µg/mL) and the MIC (Pseudomonas aeruginosa [26]) was 8 µM (≈ 12.5 µg/mL). For the same compound, the MIC (Escherichia coli [27]) was 4 µM, the Ratio (Pseudomonas aeruginosa [28]) was 2 - 4 and the MIC [29] was 4 µM (≈ 6.26 µg/mL). For the same compound, the MIC (Escherichia coli [30]) was 4 µM, the Activity (Staphylococcus aureus [31]) was “Active” and the “fold change (FC)” value (Pseudomonas aeruginosa [32]) was 4 - 8. For the same compound, the “fractional inhibitory concentration index (FICI)” value (Pseudomonas aeruginosa [33]) was 0.5, the Activity (Staphylococcus aureus [34]) was “Active” and the MIC (Staphylococcus aureus [35]) was 4 µM (≈ 6.26 µg/mL). For the same compound, the MIC (Enterococcus faecium [36]) was 4 µM (≈ 6.26 µg/mL), the MIC (Bacillus subtilis) was 2 µM (≈ 3.13 µg/mL) and the MIC (Pseudomonas aeruginosa [37]) was 8 µM (≈ 12.5 µg/mL). The MIC (Staphylococcus aureus [38]) was 16 µM, the MHC10 (Erythrocyte) was 111 µM and the KSV (Lipid bilayer) was 1.01 M⁻¹. The Ratio (Pseudomonas aeruginosa [39]) was 2 - 4 and the Activity (RAW264.7 [40]) was “Active”.
